Measurements reported in ChEMBL document CHEMBL1151214, “Pentacyclic triterpenoid esters from the fruits of Bruguiera cylindrica” (J Nat Prod, 2004).
≈ marks a conversion by molar mass, not a printed value. Calls of active or inactive are those of the source. No cut-off for these calls is given here.

Assays:
Type in all cases: functional, cell-based
NCI-H187 = assay: Cytotoxicity against human NCI-H187 cells by colorimetric method
KB = assay: Cytotoxicity against human KB cells by colorimetric method
BC = assay: Cytotoxicity against human BC cells by colorimetric method

Compound: COc1cc(/C=C/C(=O)O[C@@H]2CC[C@]3(C)[C@H]4CC[C@]5(C)C(=CC[C@@]6(C)CCC(C)(C)C[C@H]65)[C@]4(C)CC[C@H]3C2(C)C)ccc1O
- Activity (NCI-H187): inactive
- Activity (KB): inactive
- Activity (BC): inactive

Compound: COc1cc(/C=C\C(=O)O[C@@H]2CC[C@]3(C)[C@H]4CC[C@]5(C)C(=CC[C@@]6(C)CCC(C)(C)C[C@H]65)[C@]4(C)CC[C@H]3C2(C)C)ccc1O
- IC50 (NCI-H187): 12.2 mg/L (≈ 20.2 µM)
- Activity (KB): inactive
- Activity (BC): inactive

Compound: COc1cc(/C=C/C(=O)O[C@H]2CC[C@]3(C)[C@H]4CC[C@]5(C)C(=CC[C@@]6(C)CCC(C)(C)C[C@H]65)[C@]4(C)CC[C@H]3C2(C)C)ccc1O
- Activity (NCI-H187): inactive
- Activity (KB): inactive
- Activity (BC): inactive

Compound: CC1(C)CC[C@]2(C)CC=C3[C@]4(C)CC[C@H]5C(C)(C)[C@H](OC(=O)/C=C\c6ccc(O)cc6)CC[C@]5(C)[C@H]4CC[C@@]3(C)[C@@H]2C1
- IC50 (NCI-H187): 20 mg/L (≈ 34.9 µM)
- Activity (KB): inactive
- Activity (BC): inactive

Compound: CC1(C)CC[C@]2(C)CC=C3[C@]4(C)CC[C@H]5C(C)(C)[C@H](OC(=O)/C=C/c6ccc(O)cc6)CC[C@]5(C)[C@H]4CC[C@@]3(C)[C@@H]2C1
- Activity (NCI-H187): inactive
- Activity (KB): inactive
- Activity (BC): inactive
